According to patent US20200345733A1, “Microbicidal Pyrimidine or Triazine Containing Compounds” (Janssen Sciences Ireland UC, priority 2002, published 2020):
pKi: −log10 of the molar value.

Key:
T cells = type: cell-based; conditions: human, 5 days
Description: Immune Suppressive Concentration (ISC50) is defined as the drug concentration inhibiting 50% of the lymphocyte proliferation. Cellular toxicity was evaluated microscopically by […] staining of co-cultures of MO-DC and allogeneic CD4(+) T cells , cultured for 5 days in the presence of a dilution series of drug. Part of the harvested cells was also used for flowcytometric analysis of lymphocyte blast formation and apopoptosis, based on forward and side scatter.
Additional experiments were done to evaluate if inhibition of DNA synthesis corresponded to increased mortality of T cells or only to decreased blast formation.

[1] = test system: Neisseria gonorrhoea strains; experiment: In vitro antibacterial activity, Neisseria gonorrhoea; type: cell-based; conditions: some strains
Text: (§1) Compatibility with lactobacilli and normal vaginal flora is an important requirement for a vaginal microbicide. Activity on pathogens of sexual transmitted diseases is an additional advantage. In in vitro tests for antibacterial activity of compound B, the following susceptibilities were found: • 33 different Lactobacillus species isolated from recto-vaginal cultures of pregnant women were studied.

HIV = experiment: Cervical explant model; type: cell-based
Description: Compound B, at a concentration of 10 nM, was able to block infection of the tissue and at a concentration of 100 nM the compound could prevent transfer of infectious virus from migratory dendritic cells to co-cultured T-cells.

HIV-1 (SF162 and 1/BX08) = experiment: hu-SCID animal model of vaginal transmission of HIV; type: in vivo; conditions: single intravaginal 25 μl gel (carbopol 940 or HEC; 0.225, 0.0225 or 0.00225 mM) 15-20 minutes before challenge
Description: In order to mimic the in vivo transmission that occurs in humans, a hu-SCID animal model of vaginal transmission of HIV for the evaluation of vaginal microbicides was used (Di Fabio et al., AIDS 2001, 15, 2231-2234 Gels made up of carbopol 940 or hydroxyethyl cellulose (HEC), two water soluble polymers, were prepared containing Compound B in different concentrations (0.225 mM; 0.0225 mM or 0.00225 mM). Animals received a single intravaginal application of 25 μl of gel containing Compound B, 15-20 minutes prior to a non invasive vaginal challenge with 2×10^6 human peripheral blood lymphocytes PBL, (hu-PBL) previously infected in vitro with non-syncitium (NSI) strains of HIV-1 (SF162 and 1/BX08). Cell to cell transmission was assessed by p24 production and by quantitative PCR.

[2] = Cytotoxicity in CEM T cells; type: cell-based; conditions: human; viability of CEM T cells decreased by 50%
Description: As a reference system, CEM T cells (obtained from the American Type culture Collection in Rockville, Md.) were used under previously standardized conditions (Balzarini J, et al. AIDS Res Hum Retroviruses 10 Apr. 2000, 16: 517-528). Briefly, cells were suspended at 250,000 cells/ml in RPMI-1640, supplemented with 10% fetal calf serum, 2 mM L-glutamine and 0.075% NaHCO3 and infected with HTLV-IIIB at ˜20 TCID50. 100 μl of a 5-fold dilution series of the drugs were immediately added to 100 μl of the infected cells in 200-μl well plates. After 4 to 5 days of incubation at 37° C., the cultures were examined for syncytium formation. The EC50 is the concentration required to inhibit syncytium formation by 50%. Cytotoxicity was evaluated and given as CC50 values, which is the concentration at which the viability of the CEM cells is decreased by 50%.

Lactobacillus species = experiment: In vitro antibacterial activity, lactobacilli; type: cell-based; conditions: 33 different Lactobacillus species from recto-vaginal cultures of pregnant women; read-out: minimum inhibitory concentration (MIC50)
Text: as §1

[3] = target: HIV-1 reverse transcriptase (HIV-1 RT) (Human immunodeficiency virus type 1 group M subtype B, UniProt P04585); experiment: Steady state kinetics of RNA-dependent DNA polymerization by HIV-1 RT; type: biochemical
Description: In a first experiment, the reaction velocity was determined in the presence of different concentrations of compound B and different concentrations of dGTP while the concentration of the p(rC)p(dG) complex was constant.
In a second experimental the reaction velocity was determined in the presence of different concentrations of compound B and different concentrations of p(rC)p(dG) while the concentration of the substrate was constant.

HIV-1 RF = experiment: Direct antiviral activity, immobilised virus with Jurkat-tat indicator cells; type: cell-based

Cc1cc(C)c(Nc2ccnc(Nc3ccc(C#N)cc3)n2)c(C)c1 [compound B, 4-[[4-[(2,4,6-trimethylphenyl)amino]-2-pyrimidinyl]amino]benzonitrile]
50% death rate of T cells (T cells): 54,222 nM
Fifty percent inhibition of blast formation (T cells): 3,916 nM
Inhibition of Neisseria gonorrhoea strains [1]: inhibited at clinical relevant concentrations
Concentration able to block infection of the tissue (HIV): 10 nM
Concentration preventing transfer of infectious virus from migratory dendritic cells to co-cultured T-cells (HIV): 100 nM
Systemic infection after vaginal challenge with HIV-1 infected hu-PBL (p24, quantitative PCR) (HIV-1 (SF162 and 1/BX08)): systemic infection was successfully inhibited
CC50 [2]: 1370 nM
MIC50 (Lactobacillus species): > 32 µg/mL
Nature of binding to HIV-1 RT ([3]; against dGTP): non-competitive
pKi ([3]; against dGTP, p(rC)p(dG) constant): 7.48
Nature of binding to HIV-1 RT ([3]; against p(rC)p(dG)): non-competitive
pKi ([3]; against p(rC)p(dG), substrate constant): 7.55
Km ([3]; dGTP varied, p(rC)p(dG) constant (Km of the substrate)): 2.51 µM
Km ([3]; p(rC)p(dG) varied, substrate constant (Km of primer/template)): 10.3 µM
Concentration providing protection of infection (HIV-1 RF; virus pretreated prior to addition of cells, without removal of the compound): 10 nM
Concentration providing protection of infection (HIV-1 RF; virus treated 1 hour at 37° C., compound removed by washing, co-culture 8 days): 100 nM
